Experimental findings from patent US8697883B2, “Cyclopenta[C]pyrrole-2-carboxylate derivatives, preparation thereof and therapeutic use thereof” (Sanofi, priority 2009, dated 2014) are described below.

What is called melting point is the temperature of the solid-liquid transition.

The target in data set [1] is T1, enzyme FAAH (Fatty Acid Amide Hydrolase) (Mus musculus, UniProt O08914).
T1 construct: The membrane homogenates are prepared extemporaneously by homogenizing the tissues; from tissue; host or cells: mouse brain minus cerebellum, membrane/brain homogenate
T1 sequence (O08914 1-579): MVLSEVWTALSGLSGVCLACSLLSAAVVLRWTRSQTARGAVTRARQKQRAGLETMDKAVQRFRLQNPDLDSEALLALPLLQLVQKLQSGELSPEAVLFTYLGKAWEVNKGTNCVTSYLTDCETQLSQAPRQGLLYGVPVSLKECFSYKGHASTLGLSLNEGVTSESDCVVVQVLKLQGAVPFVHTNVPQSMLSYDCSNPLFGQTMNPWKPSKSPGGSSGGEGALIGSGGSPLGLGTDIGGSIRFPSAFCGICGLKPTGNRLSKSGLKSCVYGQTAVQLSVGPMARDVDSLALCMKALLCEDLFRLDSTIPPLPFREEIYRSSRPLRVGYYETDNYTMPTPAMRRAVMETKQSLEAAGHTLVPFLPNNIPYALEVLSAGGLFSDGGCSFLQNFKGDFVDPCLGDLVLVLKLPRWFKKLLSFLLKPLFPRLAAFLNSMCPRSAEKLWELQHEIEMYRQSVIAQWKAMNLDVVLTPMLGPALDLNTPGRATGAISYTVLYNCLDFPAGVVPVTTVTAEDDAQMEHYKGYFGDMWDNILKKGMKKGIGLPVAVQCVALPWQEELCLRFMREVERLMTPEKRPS
Put plainly: FAAH radioenzymatic test, hydrolysis of anandamide [ethanolamine 1-3H] (protocol 1). Type of data set: biochemical. The settings on record: mouse brain membrane homogenate, anandamide 10 μM, 20 min preincubation at 25° C., read-out: IC50 (concentration that inhibits 50% of the control enzymatic activity of FAAH). Here is the method:
(§1) The compounds of the invention underwent pharmacological tests to determine their inhibitory effect on the enzyme FAAH (Fatty Acid Amide Hydrolase).
Thus, mouse brains (minus the cerebellum) are removed and stored at −80° C. The membrane homogenates are prepared extemporaneously by homogenizing the tissues using a Precellys® machine in reaction buffer (10 mM Tris-HCl, pH=8, 150 mM NaCl and 1 mM ethylenediaminetetraacetic acid (EDTA)). The enzymatic reaction is performed in 96-well Multiscreen filtration plates in a final volume of 70 μL. Reaction buffer supplemented with fatty acid-free bovine serum albumin (BSA, 1 mg/ml) is used for the enzymatic reaction and the dilution of the compounds and of the anandamide [ethanolamine 1-^3H]. The reaction buffer containing BSA (43 μL/well), the diluted test compounds at different concentrations (7 μL/well containing 1% DMSO) and the membrane preparation (10 μL/well, i.e. 200 μg of tissue per test) are successively added to the wells. After preincubation for 20 minutes of the compounds with the enzyme at 25° C., the reaction is started by adding anandamide [ethanolamine 1-^3H] (specific activity of 15-20 Ci/mmol) diluted with cold anandamide (10 μL/well, final concentration of 10 μM, 0.01 μCi per test). After incubation for 20 minutes at 25° C., the enzymatic reaction is stopped by adding a […] solution of active charcoal prepared in 1.5M NaCl buffer and 0.5 M HCl (50 μL/well). The mixture is stirred for 10 minutes and the aqueous phase containing the ethanolamine [1-^3H] is then recovered by filtration under vacuum and counted by liquid scintillation.

Data set [2] relates to male OF1 mice. Put plainly: Test of analgesia: PBQ-induced abdominal stretching. The data set is classed as in vivo, mouse. The settings on record: 30 mg/kg p.o. at 120 minutes. Here is the method: The in vivo activity of the compounds of the invention was evaluated in a test of analgesia.
Thus, the intraperitoneal (i.p.) administration of PBQ (phenylbenzoquinone, 2 mg/kg in 0.9% sodium chloride solution containing 5% ethanol) to male OF1 mice weighing 25 to 30 g causes abdominal stretching, on average 30 torsions or contractions within a period of 5 to 15 minutes after injection. The test compounds are administered orally (p.o.) or intraperitoneally (i.p.) suspended in Tween 80 at 0.5%, 60 minutes or 120 minutes before the administration of PBQ. Under these conditions, the compounds of the invention that are the most powerful reduce by 35% to 80% the number of stretches induced with PBQ, over a dose range of between 1 and 30 mg/kg.

The target of data set [3] is T1, enzyme FAAH (Fatty Acid Amide Hydrolase). Put plainly: FAAH fluorescent enzymatic test, hydrolysis of AAMC (protocol 2). The data set is classed as biochemical. Conditions: mouse brain homogenate, AAMC 10 μM, 20 min preincubation at 25° C., 40 min at 37° C., read-out: IC50 (concentration that inhibits 50% of the control enzymatic activity of FAAH). On the procedure:
as §1
Thus, mouse brains (minus the cerebellum) are withdrawn and stored at −80° C. The brain homogenates are prepared extemporaneously by homogenizing the tissues using a Precellys® machine in reaction buffer (10 mM Tris-HCl, pH=8, 150 mM NaCl and 1 mM ethylenediaminetetraacetic acid (EDTA)). The enzymatic reaction is performed in black polystyrene 384-well plates in a final volume of 50 μL. Reaction buffer supplemented with fatty acid-free bovine serum albumin (BSA, 1 mg/ml) is used for the enzymatic reaction, the dilution of the compounds and the dilution of the AAMC. Reaction buffer containing the BSA (25 μL/well), the diluted test compounds at different concentrations (5 μL/well containing 1% DMSO) and the membrane preparation (10 μL/well, i.e. 200 μg of tissue per test) are successively added to the wells. After preincubation for 20 minutes of the compounds with the enzyme at 25° C., the reaction is started by adding 10 μL of substrate per well (AAMC, final concentration of 10 μM). After incubation for 40 minutes at 37° C., the aminomethyl coumarin (AMC) produced is measured by fluorescent counting (Envision plate reader).

On to `CCOc1ccc2ccc(O[C@H]3C[C@@H]4CN(C(=O)OCc5nccs5)C[C@@H]4C3)cc2c1` [Compound 3, thiazol-2-ylmethyl (3aR,5s,6aS)-5-[(7-ethoxy-2-naphthyl)oxy]hexahydrocyclopenta[c]pyrrole-2(1H)-carboxylate], for which, in data set [1], the IC50 came to 3.5 nM. Compound `O=C(OCc1csnn1)N1C[C@H]2C[C@H](Oc3ccc(Cl)cc3)C[C@H]2C1` [Compound 7, 1,2,3-thiadiazol-4-ylmethyl (3aR,5s,6aS)-5-(4-chlorophenoxy)hexahydrocyclopenta[c]pyrrole-2(1H)-carboxylate] came in with a melting point of 122 to 124 °C. The IC50 in data set [1] amounted to 89 nM.

For `NC(=O)c1cc(COC(=O)N2C[C@H]3C[C@H](Oc4ccc(Cl)cc4)C[C@H]3C2)on1` [Compound 12, (3-carbamoylisoxazol-5-yl)methyl (3aR,5s,6aS)-5-(4-chlorophenoxy)hexahydrocyclopenta[c]pyrrole-2(1H)-carboxylate], in data set [1], the IC50 is 19 nM. Compound `CCOc1ccc2ccc(OC3CC4CN(C(=O)OCc5nc(C(=O)NC)cs5)CC4C3)cc2c1` [Compound 23, [4-(methylcarbamoyl)thiazol-2-yl]methyl (3aR,5s,6aS)-5-[(7-ethoxy-2-naphthyl)oxy]hexahydrocyclopenta[c]pyrrole-2(1H)-carboxylate] yielded a melting point of 149 to 151 °C. Besides, in data set [1], the IC50 was determined as 34 nM.

Regarding `CCOc1ccc2ccc(O[C@H]3C[C@@H]4CN(C(=O)OCc5cc(C(N)=O)no5)C[C@@H]4C3)cc2c1` [Compound 24, (3-carbamoylisoxazol-5-yl)methyl (3aR,5s,6aS)-5-[(7-ethoxy-2-naphthyl)oxy]hexahydrocyclopenta[c]pyrrole-2(1H)-carboxylate], the “reduction of the number of stretches induced with PBQ” value in data set [2] was 50%. Compound `CNC(=O)c1cc(COC(=O)N2C[C@H]3C[C@H](Oc4ccc(Cl)c5ccccc45)C[C@H]3C2)on1` [Compound 28, [3-(methylcarbamoyl)isoxazol-5-yl]methyl (3aR,5s,6aS)-5-[(4-chloro-1-naphthyl)oxy]hexahydrocyclopenta[c]pyrrole-2(1H)-carboxylate] registered a melting point of 131 to 133 °C. Further, the IC50 in data set [1] is 12 nM. The matching figures for `NC(=O)c1cc(COC(=O)N2C[C@H]3C[C@H](Oc4ccc(Cl)c(F)c4)C[C@H]3C2)on1` [Compound 34, (3-carbamoylisoxazol-5-yl)methyl (3aR,5s,6aS)-5-(4-chloro-3-fluorophenoxy)hexahydrocyclopenta[c]pyrrole-2(1H)-carboxylate]: 100 to 102 °C and 3.2 nM. On to `CNC(=O)c1cc(COC(=O)N2C[C@H]3C[C@H](Oc4ccc(Cl)c(F)c4)C[C@H]3C2)on1` [Compound 35, [3-(methylcarbamoyl)isoxazol-5-yl]methyl (3aR,5s,6aS)-5-(4-chloro-3-fluorophenoxy)hexahydrocyclopenta[c]pyrrole-2(1H)-carboxylate], for which, in data set [2], the “reduction of the number of stretches induced with PBQ” value amounted to 50%.

On to `CN(C)C(=O)c1cc(COC(=O)N2C[C@H]3C[C@H](Oc4ccc(F)cc4)C[C@H]3C2)on1` [Compound 44, (3-dimethylcarbamoylisoxazol-5-yl)methyl (3aR,5s,6aS)-5-(4-fluorophenoxy)hexahydrocyclopenta[c]pyrrole-2(1H)-carboxylate], for which, in data set [3], the IC50 came to 7.4 nM. Regarding `CNC(=O)c1cc(COC(=O)N2C[C@H]3C[C@H](Oc4ccc(-c5ccc(F)cc5)cc4)C[C@H]3C2)on1` [Compound 45, (3-methylcarbamoylisoxazol-5-yl)methyl (3aR,5s,6aS)-5-[(4′-fluorobiphenyl-4-yl)oxy]hexahydrocyclopenta[c]-pyrrole-2(1H)-carboxylate], the melting point was in the range of 154 to 156 °C. The IC50 in data set [3] worked out at 0.47 nM.
